In patent publication US8394828B2 (Janssen Pharmaceutica, NV, priority 2003, dated 2013):
Where “and” joins values, the source holds several entries; their conditions need not be identical. Equal values may be shown once. Read-outs that look alike come from different tables or passages of the source.

What was measured:
human VR1 [1] = biological target: T1, human VR1 (Homo sapiens, UniProt Q8NER1); test: Human VR1 [3H] RTX binding assay; conditions: for Ki: hVR1; for inhibition at 1 µM: compound at 1 μM
T1 construct: expressed in transfected cells; host or cells: HEK293
T1 sequence (Q8NER1 whole entry): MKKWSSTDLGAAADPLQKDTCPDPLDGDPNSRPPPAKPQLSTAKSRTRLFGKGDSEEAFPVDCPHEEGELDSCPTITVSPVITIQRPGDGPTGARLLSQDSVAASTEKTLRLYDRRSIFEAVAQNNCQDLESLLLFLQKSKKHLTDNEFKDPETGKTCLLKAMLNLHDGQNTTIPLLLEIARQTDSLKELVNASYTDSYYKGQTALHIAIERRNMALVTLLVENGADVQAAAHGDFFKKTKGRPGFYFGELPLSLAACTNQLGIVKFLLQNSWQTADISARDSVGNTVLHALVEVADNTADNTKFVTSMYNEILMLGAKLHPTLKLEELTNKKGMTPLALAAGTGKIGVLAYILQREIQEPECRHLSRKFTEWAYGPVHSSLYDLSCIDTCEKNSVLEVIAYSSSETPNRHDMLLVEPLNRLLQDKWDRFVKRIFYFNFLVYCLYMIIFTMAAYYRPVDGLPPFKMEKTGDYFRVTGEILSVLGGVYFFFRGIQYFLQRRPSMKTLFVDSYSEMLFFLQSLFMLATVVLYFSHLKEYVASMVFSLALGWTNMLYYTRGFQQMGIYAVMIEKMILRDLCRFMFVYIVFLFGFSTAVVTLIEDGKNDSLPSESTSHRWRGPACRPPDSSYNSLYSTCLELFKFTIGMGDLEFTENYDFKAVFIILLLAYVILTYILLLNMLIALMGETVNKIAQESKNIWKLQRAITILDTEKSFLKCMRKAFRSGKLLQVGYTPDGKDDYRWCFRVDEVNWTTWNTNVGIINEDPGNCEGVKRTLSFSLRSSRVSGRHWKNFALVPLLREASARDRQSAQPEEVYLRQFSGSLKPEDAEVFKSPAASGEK
Method: Compounds of the present invention were tested for their ability to inhibit the binding of [^3H] RTX to hVR1 receptors in a [^3H]
HEK293 cells were transfected with human VR1 vanilloid receptors and washed with Hank's Balanced Salt Solution, dissociated with cell dissociation buffer (Sigma), and then centrifuged at 1000×g for 5 min. […] The pelleted membranes were kept in an −80° C. freezer.
Approximately 120 μg protein/ml from membranes were incubated with indicated concentrations of [^3H] RTX in 0.5 ml of the HEPES buffer (pH 7.4) containing 0.25 mg/mL fatty acid-free bovine serum albumin at 37° C. for 60 min. […] The tip of the microcentrifuge tube containing the pellet was cut off. Bound radioactivity was quantified by scintillation counting. Non-specific binding was tested in the presence of 200 nM unlabeled RTX.

human VR1 [2] = biological target: T1, human VR1; test: Human VR1 functional assay (intracellular Ca++, FLIPR, capsaicin challenge); format: cell-based
Method: The functional activity of the test compounds was determined by measuring changes in intracellular calcium concentration using a Ca^++-sensitive fluorescent dye and FLIPR™ technology.
EC50 or IC50 values were determined from dose-response studies.

[3] = 3H-RTX binding, read-out: 3H-RTX binding assay Ki hVR1
[4] = hVR1, capsaicin challenge, read-out: FLIPR functional assay IC50 hVR1
[5] = FLIPR functional assay IC50 hVR1 60 min, 60 min
[6] = 3H-RTX binding assay Ki hVR1, 3H-RTX binding

Row | Ki (human VR1 [1]; [3]) | IC50 (human VR1 [2]; [4]) | inhibition at 1 µM (human VR1 [1]; 3H-RTX binding) [%] | IC50 (human VR1 [2]; [5]) [µM] | Structure (SMILES) | Ki (human VR1 [1]; [6]) [µM]
1 | 0.0132 µM and 0.015 µM | 1.1 µM and 10 µM |  |  | CCCCC(C)c1ccc(C(=O)Nc2cnc3ccccc3c2)cc1 (stereo not drawn) | 
2 | 0.0129 µM |  | 105 | 0.15 | CC(C)=CCC[C@H](C)CCN(C)c1ccc(C(=O)Nc2cnc3ccccc3c2)cc1 | 
3 | 0.0456 µM | 0.185 µM | 105 | 0.22 | O=C(Nc1cnc2ccccc2c1)c1ccc(N2CC[C@@H]3CCCC[C@@H]3C2)cc1 (relative stereo) [cis-4-(Octahydro-isoquinolin-2-yl)-N-quinolin-3-yl-benzamide] | 
4 | 0.0368 µM | 0.42 µM | 99 |  | O=C(Nc1cnc2ccccc2c1)c1ccc(N2CC[C@@H]3CCCC[C@@H]3C2)nc1 (relative stereo) [cis-6-(Octahydro-isoquinolin-2-yl)-N-quinolin-3-yl-nicotinamide] | 
5 | 0.0332 µM | 0.085 µM | 104 |  | O=C(Nc1cnc2ccccc2c1)c1ccc(N2CC[C@@H]3CCCC[C@H]3C2)nc1 (relative stereo) [trans-6-(Octahydro-isoquinolin-2-yl)-N-quinolin-3-yl-nicotinamide] | 
6 |  | 3.15 µM | 1 |  | CC(=O)N1CCc2cc(C(=O)Nc3cnc4ccccc4c3)ccc21 [1-Acetyl-2,3-dihydro-1H-indole-5-carboxylic acid quinolin-3-ylamide] | 
7 |  | 1.45 µM | 3 |  | O=C(Nc1cnc2ccccc2c1)c1ccc2c(c1)CCN2C(=O)c1ccccc1 [1-Benzoyl-2,3-dihydro-1H-indole-5-carboxylic acid quinolin-3-ylamide] | 
8 |  | 1.8 µM | 2 |  | CCCC(=O)N1CCc2cc(C(=O)Nc3cnc4ccccc4c3)ccc21 [1-Butyryl-2,3-dihydro-1H-indole-5-carboxylic acid quinolin-3-ylamide] | 
9 |  | 1.5 µM | 25 |  | O=C(Nc1cnc2ccccc2c1)c1ccc2c(c1)CCN2C(=O)C1CCCCC1 [1-Cyclohexanecarbonyl-2,3-dihydro-1H-indole-5-carboxylic acid quinolin-3-ylamide] | 
10 | 0.00487 µM | 0.044 µM | 103 | 0.074 | O=C(Nc1cnc2ccccc2c1)c1ccc2c(c1)CCN2C1CCCCC1 [1-Cyclohexyl-2,3-dihydro-1H-indole-5-carboxylic acid quinolin-3-ylamide] | 
11 | 0.364 µM | 8 µM |  |  | CC(C)n1c(C(F)(F)F)nc2cc(C(=O)Nc3cnc4ccccc4c3)ccc21 [1-Isopropyl-2-trifluoromethyl-1H-benzoimidazole-5-carboxylic acid quinolin-3-ylamide] | 
12 | 0.341 µM | 0.69 µM | 79 |  | CN1CCCc2cc(C(=O)Nc3cnc4ccccc4c3)ccc21 [1-Methyl-1,2,3,4-tetrahydro-quinoline-6-carboxylic acid quinolin-3-ylamide] | 
13 |  | 0.9 µM | 12 |  | CN1CCc2cc(C(=O)Nc3cnc4ccccc4c3)ccc21 [1-Methyl-2,3-dihydro-1H-indole-5-carboxylic acid quinolin-3-ylamide] | 
14 | 0.0156 µM | 0.41 µM | 93 |  | CCCN1CCc2cc(C(=O)Nc3cnc4ccccc4c3)ccc21 [1-Propyl-2,3-dihydro-1H-indole-5-carboxylic acid quinolin-3-ylamide] | 
15 |  | 10.5 µM | 1 |  | O=C(Nc1cnc2ccccc2c1)c1ccc2c(c1)CCN2 [2,3-Dihydro-1H-indole-5-carboxylic acid quinolin-3-ylamide] | 
16 |  | 10 µM | 40 |  | CCCCCNc1ccc(C(=O)Nc2cnc3ccccc3c2)c(Cl)c1 [2-Chloro-4-pentylamino-N-quinolin-3-yl-benzamide] | 
17 | 1.12 µM | 1.6 µM | 79 | 5 | CCCCCCCNc1ccccc1C(=O)Nc1cnc2ccccc2c1 [2-Heptylamino-N-quinolin-3-yl-benzamide] | 
18 | 0.0205 µM | 4.3 µM |  | 0.14 | O=C(Nc1cnc2ccccc2c1)c1ccc(N2CCCCC2)nc1 [3,4,5,6-Tetrahydro-2H-{1,2′}bipyridinyl-5′-carboxylic acid quinolin-3-ylamide] | 
19 | 0.512 µM | 1.2 µM | 61 |  | O=C(CCc1ccc2c(c1)CCN2CC1CCCCC1)Nc1cnc2ccccc2c1 [3-(1-Cyclohexylmethyl-2,3-dihydro-1H-indol-5-yl)-N-quinolin-3-yl-propionamide] | 
20 | 0.264 µM | 0.48 µM | 59 |  | CCCn1ccc2cc(CCC(=O)Nc3cnc4ccccc4c3)ccc21 [3-(1-Propyl-1H-indol-5-yl)-N-quinolin-3-yl-propionamide] | 

Row | Ki (human VR1 [1]; [3]) | IC50 (human VR1 [2]; [4]) | inhibition at 1 µM (human VR1 [1]; 3H-RTX binding) [%] | IC50 (human VR1 [2]; [5]) [µM] | Structure (SMILES) | Ki (human VR1 [1]; [6]) [µM]
21 | 1.07 µM | 1.06 µM | 51 |  | CCCN1CCc2cc(CCC(=O)Nc3cnc4ccccc4c3)ccc21 [3-(1-Propyl-2,3-dihydro-1H-indol-5-yl)-N-quinolin-3-yl-propionamide] | 
22 | 0.0941 µM | 0.67 µM |  | 0.035 | O=C(CCc1ccc(CC2CCCCC2)cc1)Nc1cnc2ccccc2c1 [3-(4-Cyclohexylmethyl-phenyl)-N-quinolin-3-yl-propionamide] | 
23 | 0.428 µM |  |  | 5.2 | CCCCCc1ccc(C=CC(=O)Nc2cnc3ccccc3c2)cc1 [3-(4-Pentyl-phenyl)-N-quinolin-3-yl-acrylamide] | 
24 | 0.181 µM |  |  | 0.59 | CCCCCc1ccc(CCC(=O)Nc2cnc3ccccc3c2)cc1 [3-(4-Pentyl-phenyl)-N-quinolin-3-yl-propionamide] | 
25 | 0.0139 µM | 1.2 µM |  |  | CCC(C)c1ccc(CCC(=O)Nc2cnc3ccccc3c2)cc1 (stereo not drawn) [3-(4-sec-Butyl-phenyl)-N-quinolin-3-yl-propionamide] | 
26 |  | 0.066 µM |  |  | CC(C)(C)c1ccc(C#CC(=O)Nc2cnc3ccccc3c2)cc1 [3-(4-tert-Butyl-phenyl)-propynoic acid quinolin-3-ylamide] | 
27 | 0.142 µM | 8.8 µM | 82 |  | CCCCCCCN(C)c1cccc(C(=O)Nc2cnc3ccccc3c2)c1 [3-(Heptyl-methyl-amino)-N-quinolin-3-yl-benzamide] | 
28 | 0.262 µM | 0.5 µM | 72 |  | CCCCCN(C)c1cccc(C(=O)Nc2cnc3ccccc3c2)c1 [3-(Methyl-pentyl-amino)-N-quinolin-3-yl-benzamide] | 
29 |  | 3.2 µM | 1 |  | O=C(Nc1cnc2ccccc2c1)c1cccc(NC2CCCCC2)c1 [3-Cyclohexylamino-N-quinolin-3-yl-benzamide] | 
30 | 0.107 µM |  | 93 | 0.26 | CCCCCN(CCCCC)c1cccc(C(=O)Nc2cnc3ccccc3c2)c1 [3-Dipentylamino-N-quinolin-3-yl-benzamide] | 
31 |  | 10 µM | 20 |  | CCCCCCCNc1cccc(C(=O)Nc2cnc3ccccc3c2)c1 [3-Heptylamino-N-quinolin-3-yl-benzamide] | 
32 | 0.158 µM | 10 µM |  |  | O=C(CCc1ccc2c(c1)CCC2)Nc1cnc2ccccc2c1 [3-Indan-5-yl-N-quinolin-3-yl-propionamide] | 
33 | 0.0379 µM | 0.054 µM | 107 |  | CCCCCN(C)c1ccc(C(=O)Nc2cnc3ccccc3c2)cc1C [3-Methyl-4-(methyl-pentyl-amino)-N-quinolin-3-yl-benzamide] | 
34 | 0.0735 µM | 0.78 µM | 81 | 0.012 | CCCCCNc1ccc(C(=O)Nc2cnc3ccccc3c2)cc1C [3-Methyl-4-pentylamino-N-quinolin-3-yl-benzamide] | 
35 |  | 2.7 µM | 12 |  | CCCCCNc1cccc(C(=O)Nc2cnc3ccccc3c2)c1 [3-Pentylamino-N-quinolin-3-yl-benzamide] | 
36 | 0.192 µM | 0.18 µM | 90 |  | CN(CCc1ccccc1)c1ccc(CCC(=O)Nc2cnc3ccccc3c2)cc1 [3-[4-(Methyl-phenethyl-amino)-phenyl]-N-quinolin-3-yl-propionamide] | 
37 |  | 0.73 µM |  |  | O=C(Nc1cnc2ccccc2c1)c1ccc(NC2CCCCCC2)cc1 [4-Cycloheptylamino-N-quinolin-3-yl-benzamide] | 
38 |  | 0.03 µM |  |  | CC1(C)CCC(C)(C)c2cc(C=CC(=O)Nc3cnc4ccccc4c3Cl)ccc21 [N-(4-Chloro-quinolin-3-yl)-3-(5,5,8,8-tetramethyl-5,6,7,8-tetrahydro-naphthalen-2-yl)-acrylamide] | 
39 |  | 0.107 µM |  |  | CN(c1ccc(C(=O)Nc2cnc3ccccc3c2Cl)cc1)C1CCCCC1 [N-(4-Chloro-quinolin-3-yl)-4-(cyclohexyl-methyl-amino)-benzamide] | 
40 |  | 0.065 µM |  |  | CC1(C)CCC(C)(C)c2cc(C=CC(=O)Nc3cnc4ccccc4c3)ccc21 [N-Quinolin-3-yl-3-(5,5,8,8-tetramethyl-5,6,7,8-tetrahydro-naphthalen-2-yl)-acrylamide] | 

Row | Structure (SMILES) | Ki (human VR1 [1]; [3]) | IC50 (human VR1 [2]; [4]) | inhibition at 1 µM (human VR1 [1]; 3H-RTX binding) [%] | IC50 (human VR1 [2]; [5]) [µM] | Ki (human VR1 [1]; [6]) [µM]
41 | CCCCCN1CCCc2cc(C(=O)Nc3cnc4ccccc4c3)ccc21 [1-Pentyl-1,2,3,4-tetrahydro-quinoline-6-carboxylic acid quinolin-3-ylamide] |  | 1.6 µM | 93 | 0.47 | 0.0391
42 | CCCCCn1ccc2cc(C(=O)Nc3cnc4ccccc4c3)ccc21 [1-Pentyl-1H-indole-5-carboxylic acid quinolin-3-ylamide] |  |  | 95 | 0.15 | 0.0631
